The values that follow come from article PMC6680770, “Effect of Ticagrelor, a Cytochrome P450 3A4 Inhibitor, on the Pharmacokinetics of Tadalafil in Rats” (Pharmaceutics, 2019).

Data set [1] in a line: Pharmacokinetic study of tadalafil after oral administration to non-pretreated and ticagrelor-pretreated rats, non-compartment analysis. The format is in vivo, Sprague-Dawley rats. The note with it: tadalafil 2 mg/kg oral; for Cmax / AUC(0-inf) / CL/F / Tmax / half-life / AUC(0-t): Sprague-Dawley, rat, plasma, po, 2 mg/kg, mean ± SD, n = 10; for AUC(0-t): read-out: AUC0–24. The procedure: The concentrations of tadalafil were analyzed by a liquid chromatography tandem-mass spectrometry (LC-MS/MS) system equipped with Agilent 1290 series and Agilent 6495 Triple Quad LC/MS (Agilent Technologies, Santa Clara, CA, USA). A YMC-Triart C18 column (50 × 2.0 mm, 1.9 µm; YMC Inc., Wilmington, NC, USA) was used. The mobile phase was a mixture of 0.2% formic acid in acetonitrile and 0.2% formic acid in distilled water (50:50, v/v), and the flow rate was 0.4 mL/min. The temperature of the column and autosampler were set as 30 °C and 4 °C, respectively. The positive ion mode using Agilent jet stream electrospray ionization (AJS-ESI) was applied to record the scan mass spectra. The ion transitions of tadalafil and IS were set as 390.4→268.1 m/z and 876.4→308.1 m/z, respectively, and detected with a multiple reaction monitoring (MRM) mode. The collision energies for tadalafil and IS were 10 V and 30 V, respectively. The cell accelerator voltage was 5 V and the dwell time was set as 200 ms. The source parameters were set as follows: Gas temperature 200 °C, gas flow 14 L/min, nebulizer 20 psi, sheath gas heater 250 °C, sheath gas flow 11 L/min, capillary 3000 V, and nozzle voltage 1500 V.
(§1) The experiment was performed in a parallel design. A total of 20 rats were randomly divided into two groups. The control group, Group N (n = 10, non-pretreated rats), was orally administered for 7 days only with the vehicle (normal saline/polyethylene glycol 400/dimethyl sulfoxide = 40:20:20). Group T (n = 10, ticagrelor-pretreated rats), an experimental group, received 10 mg/kg of ticagrelor in the vehicle once a day for 7 days orally. Thereafter, on the seventh day, tadalafil (2 mg/kg) was orally administered 30 min after the final administration of the vehicle or ticagrelor. Doses of all samples were calculated according to the weight of the rats and administered using gavage. The dose of ticagrelor and tadalafil given to rats were determined by converting the human doses (90 mg for ticagrelor and 20 mg for tadalafil) to animal doses with body surface area, according to the United States Food and Drug Administration guidelines. Blood (0.3 mL) was collected from the retro-orbital plexus or the jugular vein at predetermined time-points (0, 0.33, 0.67, 1, 1.5, 2, 4, 6, 8, 12, and 24 h) after the oral administration. Samples were centrifuged at 15,000× g for 5 min at 4 °C. The plasma was collected and stored at −20 °C until the concentration of tadalafil was analyzed by LC-MS/MS.
Protein precipitation was applied to extract tadalafil from plasma. Briefly, 200 µL of acetonitrile (0.2 v/v% formic acid) containing 500 ng/mL of IS was added to 20 µL of the plasma sample. After shaking for 5 min, the mixture was centrifuged at 15,000× g for 5 min. The supernatant (150 µL) was transferred and 5 µL of the sample was injected into the LC-MS/MS.
Pharmacokinetic data were analyzed based on the non-compartment analysis of WinNonlin software 8.1 (Pharsight Corp., Sunnyvale, CA, USA). The maximum plasma concentration of tadalafil (maximum concentration (Cmax)) and the time to reach the maximal plasma concentration (Tmax) of tadalafil were determined from the plasma concentration-time profiles. The area under the plasma concentration vs time curve from 0 to 24 h (AUC0–24) was calculated by the linear trapezoidal rule and the area under the plasma concentration vs time curve from 0 h to infinite time (AUC0–∞) was estimated by extrapolating time to infinity. The elimination half-life (T1/2) and apparent total clearance (CL/F) were determined from the ln 2/elimination rate constant and dose/AUC0–∞, respectively.

Data set [2] can be described thus: One-compartment pharmacokinetic modeling of the plasma concentration-time profile of tadalafil. The class given is in vivo, Sprague-Dawley rats. The note with it: one-compartment model; for k el: Sprague-Dawley, rat, plasma, read-out: Ke (converted); for k el / Ka / V/F: tadalafil 2 mg/kg oral, mean ± SD, n = 10. On the procedure:
as §1
Pharmacokinetic modeling of the plasma concentration-time profile of tadalafil was performed using a one-compartment model to investigate the absorption and elimination rates. The parameters of the one-compartment model of tadalafil were estimated based on data from Group N and Group T.
In this model, the shift of the tadalafil amount in the gut compartment and the central compartment is described by the following equations [33]: dG/dt= −Ka·G dC/dt=Ka·G−Ke·C where G and C represent the amount of tadalafil in the gut compartment and the central compartment, respectively. Ka indicates the absorption rate constant from the gut compartment to the central compartment. Ke indicates the elimination rate constant from the central compartment […]. Each equation was applied to both Group N and Group T data through the classic model of WinNolin software 8.1 (Pharsight Corp., Sunnyvale, CA, USA).
Predicted plasma concentrations of tadalafil (Conpred) using the one-compartment model were estimated by the following equation [34]: Conpred= C/(V/F) where V/F indicates the central volume of distribution of tadalafil.

Details of data set [3]: method as in PMID 14622499. The note with it: cited from earlier work.
For data set [4] the following is noted: longer than sildenafil or vardenafil; cited from earlier work.
In data set [5] the test system is CYP3A. The experiment in a line: Classification of ticagrelor as CYP3A inhibitor from changes in tadalafil AUC and clearance. The note with it: weak inhibitor = increases AUC of CYP substrate 1.25-fold to 2-fold or reduces clearance by 20–50%; inferred from tadalafil AUC (1.61-fold) and clearance (37%) in rats. The class given is in vivo. The procedure:
as §1, with “Blood (0.3 mL) was collected from the retro-orbital plexus or the jugular vein at predetermined time-points (0, 0.33, 0.67, 1, 1.5, 2, 4, 6, 8, 12, and 24 h) after the oral administration. Samples were centrifuged at 15,000× g for 5 min at 4 °C.” left out
Pharmacokinetic data were analyzed based on the non-compartment analysis of WinNonlin software 8.1 (Pharsight Corp., Sunnyvale, CA, USA). The maximum plasma concentration of tadalafil (maximum concentration (Cmax)) and the time to reach the maximal plasma concentration (Tmax) of tadalafil were determined from the plasma concentration-time profiles. […]

The mark [6] stands for this setting: Group T, ticagrelor-pretreated rats (10 mg/kg, 7 days).
The mark [7] stands for this setting: rats, ticagrelor pretreatment, p < 0.05.
[8] abbreviates: rats, ticagrelor-pretreated vs non-pretreated.
The mark [9] stands for this setting: Group T, ticagrelor-pretreated rats.
Setting [10] is: ticagrelor-pretreated vs non-pretreated rats.

Values joined by “and” are separate entries in the source; they are usually repeats but may differ in a detail not shown here. Equal values may be shown once. Read-outs that look alike come from different tables or passages of the source.

A word on the Cmax: it is the peak of the concentration-time curve. For orientation: AUC(0-inf) means the area under the concentration-time curve extrapolated to infinity. One may read the CL/F as the apparent clearance, not corrected for the fraction that reaches the circulation. The term Tmax denotes the time at which the peak concentration occurs. As usually defined, the half-life is how long it takes for the measured level to halve. For `CN1CC(=O)N2[C@H](c3ccc4c(c3)OCO4)c3[nH]c4ccccc4c3C[C@@H]2C1=O` [tadalafil, Tadalafil], in data set [1] (Group N, non-pretreated rats (vehicle 7 days)), the Cmax amounted to 376 ± 72.8 ng/mL. Moreover, in data set [1] (Group N, non-pretreated rats), the AUC(0-inf) was found to be 3070 ± 743 ng·h/mL, the CL/F is 11.3 mL/min/kg, the Tmax turned out to be 1.45 ± 0.5 h and the half-life was 3.15 ± 0.23 h. Further, the AUC(0-t) in data set [1] (Group N, non-pretreated rats) stood at 3050 ± 732 ng·h/mL. Besides, the Cmax in data set [1] (Group T, ticagrelor-pretreated rats (10 mg/kg oral once a day, 7 days)) amounted to 433 ± 120 ng/mL. In addition, in data set [1] (setting [6]), the AUC(0-inf) was 5100 ± 1800 ng·h/mL, the apparent clearance (CL/F) is 7.17 mL/min/kg, the time to peak (Tmax) stood at 3.22 ± 1.3 h and the half-life is 4.47 ± 0.89 h. Moreover, the AUC(0-t) in data set [1] (setting [6]) was 4900 ± 1590 ng·h/mL. Further, in data set [1] (rats, ticagrelor pretreatment), the “increase of AUC of tadalafil by co-administration with ticagrelor” value is on record as “approximately 61%”; the “increase of Tmax, Group T compared to Group N” value is listed as 2.22 fold; the “reduction of tadalafil clearance, Group T compared with Group N” value stood at 37%. In data set [1] (rats, ticagrelor pretreatment, no significant difference (p = 0.3332)), the “increase of Cmax, Group T compared to Group N” value was 1.15 fold. Further, in data set [1] (setting [7]), the “increase of AUC0–24 (systemic exposure), Group T compared to Group N” value is listed as 1.61 fold and the “increase of AUC0–∞, Group T compared to Group N” value came out at 1.66 fold. In data set [1] (setting [8]), the “AUC0–24 Ratio (Group T/Group N)” value is 1.61, the “AUC0–∞ Ratio (Group T/Group N)” value was determined as 1.66, the “CL/F Ratio (Group T/Group N)” value came out at 0.63 and the “Cmax Ratio (Group T/Group N)” value was 1.15. In data set [1] (setting [8]), the “T1/2 Ratio (Group T/Group N)” value is recorded as 1.42 and the “Tmax Ratio (Group T/Group N)” value is 2.22. Moreover, in data set [2] (Group N, non-pretreated rats), the k el was 4.72e-05 s⁻¹; the Ka turned out to be 1.71 ± 0.91 h⁻¹; the V/F is 4.39 ± 0.78 L/kg and 4.39 ± 0.76 L/kg. Further, in data set [2] (setting [9]), the k el was 3.61e-05 s⁻¹, the Ka was 1.14 ± 0.73 h⁻¹ and the V/F came to 3.36 ± 0.95 L/kg. In data set [2] (setting [10]), the “Ka Ratio (Group T/Group N)” value came out at 0.67, the “Ke Ratio (Group T/Group N)” value came to 0.77 and the “V/F Ratio (Group T/Group N)” value is 0.77. In addition, the half-life entry in data set [3] (elderly men) is “about 21.6 h”. Also, in data set [3] (normal healthy men, after administration), the half-life entry was “approximately 17.5 h”. Moreover, in data set [4], the “clinical efficacy (duration)” value was “up to 36 h”.

For the molecule `CCCSc1nc(N[C@@H]2C[C@H]2c2ccc(F)c(F)c2)c2nnn([C@@H]3C[C@H](OCCO)[C@@H](O)[C@H]3O)c2n1` [ticagrelor, Ticagrelor], in data set [5], the CYP3A inhibitor classification entry is on record as “weak CYP3A inhibitor”.
